Source: patent publication US11319316B2, “Compounds that induce degradation of anti-apoptotic Bcl-2 family proteins and the uses thereof” (BioVentures, LLC, priority 2016, dated 2022)

How the values were obtained:
Type in all cases: cell-based
Normal WI38 (NSC) = test: Viability of normal WI38 cells (NSC), 72 h, PI staining and flow cytometry; conditions: Homo sapiens, WI-38, viable (PI-) cells as percentage of vehicle control
Procedure: (§1) Normal WI38 (NSC) and IR-induced senescent WI38 cells (IR-SC) were incubated with vehicle or increasing concentrations of compounds of Formula (I) or Formula (II) for 72 hours. The cells were digested with 0.25% trypsin and 1 mM EDTA, and harvested in PBS containing 2% FBS. After incubation with propidium iodide (PI, 100 ng/ml) in PBS at room temperature for 1 minute, cells were centrifuged at 1,200 rpm for 6 minutes to remove PI and then resuspended in PBS containing 2% FBS for analysis using a flow cytometer. Viable cells (PI-cells) were analyzed by flow cytometry at a constant flow rate to count the number of cells and calculated as a percentage of control cells treated with vehicle. Table 1 depicts the EC50 values of the compounds of Formula (I) and compounds of Formula (II) against normal WI38 and IR-induced senescent WI38.

[1] = system: IR-induced senescent WI38 cells (IR-SC); test: Viability of IR-induced senescent WI38 cells (IR-SC), 72 h, PI staining and flow cytometry
Procedure: as §1

RS4; 11 cancer cells = test: Cancer cell viability by MTS, 72 h, RS4;11; conditions: Homo sapiens, RS4;11 cells
Procedure: (§2) RS4; 11 and NCI-H146 cancer cells were incubated with vehicle or increasing concentrations of compounds of Formula (I) and Formula (II). At 72 hours post-treatment cell viability was measured by MTS and EC50 was calculated as a percentage of control cells treated with vehicle. Table 1 depicts the EC50 values of compounds of Formula (I) and Formula (II) against RS4; 11 and NCI-H146.

NCI-H146 cancer cells = test: Cancer cell viability by MTS, 72 h, NCI-H146; conditions: Homo sapiens
Procedure: as §2

Bcl-xL [2] = target: T1, Bcl-xL (Homo sapiens, UniProt Q07817); test: Protein degradation assay (Western blot) in IR-SC WI38 cells; conditions: 2 μM; FIG. 1
T1 construct: endogenous in cells; host or cells: WI38 cells (normal NC-WI38 and ionizing-radiation-induced senescent IR-SC WI38)
T1 sequence (Q07817 whole entry): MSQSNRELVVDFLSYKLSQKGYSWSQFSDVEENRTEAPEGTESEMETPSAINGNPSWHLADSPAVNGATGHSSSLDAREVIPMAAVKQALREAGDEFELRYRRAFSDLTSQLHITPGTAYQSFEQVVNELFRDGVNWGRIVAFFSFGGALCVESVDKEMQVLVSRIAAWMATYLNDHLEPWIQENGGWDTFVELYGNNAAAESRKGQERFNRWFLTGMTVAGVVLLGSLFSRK
Procedure: IR-SC WI38 cells were incubated with vehicle or increasing concentrations of XZ-14439 for 18 hours at increasing […] (FIG. 3A) and at a fixed concentration of XZ-14439 for increasing times (FIG. […]). The cells were digested with 0.25% trypsin and 1 mM EDTA, and harvested in RIPA lysis buffer with 1% Phosphatase Inhibitor Cocktail 3 and 1% Protease Inhibitor Cocktail. An equal amount of protein (15-30 μg/lane) from each cell extract was resolved on a 12% SDS-PAGE gel. Proteins were blotted onto a NOVEX PVDF membrane by electrophoresis. The membranes were blocked with TBS-T blocking buffer (5% nonfat milk in 25 mM Tris-HCL, pH 7.4; 3 mM KCl; […] NaCl; and 0.05% Tween) and probed with primary antibodies (at a predetermined optimal concentration) overnight at 4° C. or for 1 hour at room temperature. After extensive washing with TBS-T, the membranes were incubated with an appropriate peroxidase-conjugated secondary antibody for 1 hour at room temperature. After three washes with TBS-T, the proteins of interest were detected with ECL Western Blotting Detection Reagents and recorded with autoradiography (Pierce Biotech, Rockford, Ill., USA). The primary antibody Bcl-x (#2762), Bcl-2 antibody (#2872S) and β-actin (13E5, #4970) were purchased from Cell Signaling.
IR-SC WI38 (FIG. 4A) and RS4; 11 (FIG. 4B) cells were incubated with vehicle or increasing concentrations of compounds of Formula (I) or Formula (II) for 6 or 16 hours, at 1 μM (FIG. 4A) and 100 nm (FIG. 4B), respectively. The cells were harvested in RIPA lysis buffer with 1% Phosphatase Inhibitor Cocktail 3 and 1% Protease Inhibitor Cocktail. An equal amount of protein (15-30 μg/lane) from each cell extract was resolved on a 12% SDS-PAGE gel. Proteins were blotted onto a NOVEX PVDF membrane by electrophoresis. The membranes were blocked with TBS-T blocking buffer (5% nonfat milk in 25 mM Tris-HCL, pH 7.4; 3 mM KCl; 140 mM NaCl; and 0.05% Tween) and probed with primary antibodies (at a predetermined optimal concentration) overnight at 4° C. or for 1 hour at room temperature. After extensive washing with TBS-T, the membranes were incubated with an appropriate peroxidase-conjugated secondary antibody (Jackson ImmunoResearch Europe, Suffolk, UK) for 1 hour at room temperature. After three washes with TBS-T, the proteins of interest were detected with ECL Western Blotting Detection Reagents and recorded with autoradiography. The primary antibody Bcl-xl (#2762), Bcl-2 antibody (#2872S), Bcl-w (#2724S), Mcl-1 (#5453s) and β-actin (13E5, #4970) were purchased from Cell Signaling.

Bcl-xL [3] = target: T1, Bcl-xL; test: Bcl-xL depletion in normal WI38 (NC-WI38) cells; conditions: 2 μM; FIG. 1

EC50 (RS4; 11 cancer cells): > 2000 nM
EC50 (NCI-H146 cancer cells): > 2000 nM
Bcl-xL depletion in IR-SC WI38 cells (Bcl-xL [2]): depletes Bcl-xL
Bcl-xL depletion in normal WI38 (NC-WI38) (Bcl-xL [3]): depletes Bcl-xL
Compound: O=C1CCC(N2C(=O)c3cccc(NCCOCCOCCOCc4cn(CCCC(=O)N5CCN(CC#Cc6ccc(OCCCc7sc(N8CCc9cccc(C(=O)Nc%10nc%11ccccc%11s%10)c9C8)nc7C(=O)O)c(F)c6)CC5)nn4)c3C2=O)C(=O)N1 (stereo not shown) [XZ-13906, 2-(8-(benzo[d]thiazol-2-ylcarbamoyl)-3,4-dihydroisoquinolin-2(1H)-yl)-5-(3-(4-(3-(4-(4-(4-((2-(2-(2-(2-(2,6-dioxopiperidin-3-yl)-1,3-dioxoisoindolin-4-ylamino)ethoxy)ethoxy)ethoxy)methyl)-1H-1,2,3-triazol-1-yl)butanoyl)piperazin-1-yl)prop-1-ynyl)-2-fluorophenoxy)propyl)thiazole-4-carboxylic acid]
EC50 (Normal WI38 (NSC)): 100000 nM
EC50 ([1]; Homo sapiens, WI-38, IR-induced senescent WI38 cells, 72 hours, viable (PI-) cells as percentage of vehicle control): 2400 nM
Ratio NSC/SC ([1]; ratio of WI38 EC50 in NSC to EC50 in IR-SC): 41.67
